US12622948B2 (SUN PHARMACEUTICAL INDUSTRIES LIMITED, priority 2020, dated 2026)
Marks after values point to notes of the source that are not given here. Starred links: 1 amine or outer side, 2 acyl side, 3 side chain; linkers in the order of their positions; H or OH if unused. Non-standard residues stand in square brackets, D forms with d. Residues, ends and D or L forms follow the SMILES beside them. Groups on a side chain read outwards from the residue. No end group written: not given here. *: point of attachment. C20 diacid = O=C(O)CCCCCCCCCCCCCCCCCCC(=O)*; γGlu = O=C(O)[C@H](CCC(=O)[*:2])N[*:1]; Moiety A = not defined here; Nva = CCC[C@H](N)C(=O)O; AEEA = NCCOCCOCC(=O)O; Aib = CC(C)(N)C(=O)O

Test system: type 2 diabetic mouse (db/db) model
Assay: Efficacy study in db/db mice at 10 nM/kg dose (blood glucose, body weight, food intake)
Assay type: in vivo
Settings: for Cumulative food Intake (g) 0-48 hr. vs. Baseline, Mean / Cumulative food Intake (g) 0-96 hr. vs. Baseline, Mean / Delta Blood Glucose (mM) Mean / Body Wt. Change (%) 48 hr. vs. Baseline, Mean / Body Wt. Change (%) 96 hr. vs. Baseline, Mean: 10 nM/kg s.c. single dose; for blood glucose reduction / body weight reduction / reduction in food consumption: db/db mice, 10 nM/kg s.c., vs diabetic control
Experimental: The effect of compounds of present invention on blood glucose, food intake and body weight was studied in mice. This study was performed in a type 2 diabetic mouse (db/db) model. […] Baseline blood glucose was measured from all the animals. […] All the animals were administered with test items subcutaneously. […] Delta blood glucose (mM) was calculated.

[1] = Study 4, db/db mice, 0 hr (baseline)
[2] = Study 2, db/db mice, 0 hr (baseline)

Row | Molecule | Cumulative food Intake (g) 0-48 hr. vs. Baseline, Mean (Study 4, db/db mice) | Cumulative food Intake (g) 0-96 hr. vs. Baseline, Mean (Study 4, db/db mice) | Delta Blood Glucose (mM) Mean [1] | Delta Blood Glucose (mM) Mean (Study 4, db/db mice, 4 hr) | Delta Blood Glucose (mM) Mean (Study 4, db/db mice, 8 hr) | Delta Blood Glucose (mM) Mean (Study 4, db/db mice, 12 hr) | Delta Blood Glucose (mM) Mean (Study 4, db/db mice, 24 hr) | Body Wt. Change (%) 48 hr. vs. Baseline, Mean (Study 4, db/db mice, 48 hr) | Delta Blood Glucose (mM) Mean (Study 4, db/db mice, 48 hr) | Delta Blood Glucose (mM) Mean (Study 4, db/db mice, 72 hr) | Body Wt. Change (%) 96 hr. vs. Baseline, Mean (Study 4, db/db mice, 96 hr) | Delta Blood Glucose (mM) Mean (Study 4, db/db mice, 96 hr) | Cumulative food Intake (g) 0-48 hr. vs. Baseline, Mean (Study 2, db/db mice) | Cumulative food Intake (g) 0-96 hr. vs. Baseline, Mean (Study 2, db/db mice) | Delta Blood Glucose (mM) Mean [2] | Delta Blood Glucose (mM) Mean (Study 2, db/db mice, 4 hr) | Delta Blood Glucose (mM) Mean (Study 2, db/db mice, 8 hr) | Delta Blood Glucose (mM) Mean (Study 2, db/db mice, 12 hr) | Delta Blood Glucose (mM) Mean (Study 2, db/db mice, 24 hr) | Body Wt. Change (%) 48 hr. vs. Baseline, Mean (Study 2, db/db mice, 48 hr) | further results
1 | CC[C@H](NC(=O)[C@@H](NC(=O)[C@H](CO)NC(=O)[C@H](Cc1ccc(O)cc1)NC(=O)[C@H](CC(=O)O)NC(=O)[C@H](CO)NC(=O)[C@@H](NC(=O)[C@H](Cc1ccccc1)NC(=O)[C@@H](NC(=O)CNC(=O)[C@H](CCC(=O)O)NC(=O)C(C)(C)NC(=O)[C@@H](N)Cc1ccc(O)cc1)[C@@H](C)O)[C@@H](C)O)[C@@H](C)CC)C(=O)N[C@@H](CC(C)C)C(=O)N[C@@H](CC(=O)O)C(=O)N[C@@H](CCCCN)C(=O)N[C@H](C(=O)N[C@@H](C)C(=O)N[C@@H](CCC(N)=O)C(=O)N[C@@H](CCCCNC(=O)COCCOCCNC(=O)C(C)(C)NC(=O)CC[C@H](NC(=O)CCCCCCCCCCCCCCCCCCC(=O)O)C(=O)O)C(=O)N[C@@H](C)C(=O)N[C@@H](Cc1ccccc1)C(=O)N[C@H](C(=O)N[C@@H](CCC(N)=O)C(=O)N[C@@H](Cc1c[nH]c2ccccc12)C(=O)N[C@@H](CC(C)C)C(=O)N[C@H](C(=O)N[C@@H](C)C(=O)NCC(=O)NCC(=O)N1CCC[C@H]1C(=O)N[C@@H](CO)C(=O)N[C@@H](CO)C(=O)NCC(=O)N[C@@H](C)C(=O)N1CCC[C@H]1C(=O)N1CCC[C@H]1C(=O)N1CCC[C@H]1C(=O)N[C@@H](CO)C(N)=O)[C@@H](C)CC)C(C)C)[C@@H](C)CC [Compound 10] | 8.2*** g | 20.5** g | 0 mM | −12.1*** mM | −13.6*** mM | −14.7*** mM | −15.6*** mM | −4.5*** % | −4.0** mM | 2.3 mM | −3.1*** % | 1.7 mM |  |  |  |  |  |  |  |  | 
2 | CCCC[C@H](NC(=O)[C@@H](NC(=O)[C@H](CO)NC(=O)[C@H](Cc1ccc(O)cc1)NC(=O)[C@H](CC(=O)O)NC(=O)[C@H](CO)NC(=O)[C@@H](NC(=O)[C@H](Cc1ccccc1)NC(=O)[C@@H](NC(=O)CNC(=O)[C@H](CCC(=O)O)NC(=O)C(C)(C)NC(=O)[C@@H](N)Cc1ccc(O)cc1)[C@@H](C)O)[C@@H](C)O)[C@@H](C)CC)C(=O)N[C@@H](CC(C)C)C(=O)N[C@@H](CC(=O)O)C(=O)N[C@@H](CCCCN)C(=O)N[C@H](C(=O)N[C@@H](C)C(=O)N[C@@H](CCC(N)=O)C(=O)N[C@@H](CCCCNC(=O)COCCOCCNC(=O)C(C)(C)NC(=O)CC[C@H](NC(=O)CCCCCCCCCCCCCCCCCCC(=O)O)C(=O)O)C(=O)N[C@@H](C)C(=O)N[C@@H](Cc1ccccc1)C(=O)N[C@H](C(=O)N[C@@H](CCC(N)=O)C(=O)N[C@@H](Cc1c[nH]c2ccccc12)C(=O)N[C@@H](CC(C)C)C(=O)N[C@H](C(=O)N[C@@H](C)C(=O)NCC(=O)NCC(=O)N1CCC[C@H]1C(=O)N[C@@H](CO)C(=O)N[C@@H](CO)C(=O)NCC(=O)N[C@@H](C)C(=O)N1CCC[C@H]1C(=O)N1CCC[C@H]1C(=O)N1CCC[C@H]1C(=O)N[C@@H](CO)C(N)=O)[C@@H](C)CC)C(C)C)[C@@H](C)CC [Compound 11] | 8.2*** g | 21.7* g | 0 mM | −13.3*** mM | −13.3*** mM | −13.6*** mM | −15.4*** mM | −4.7*** % | −6.1*** mM | 3.6 mM | −2.0*** % | 6 mM |  |  |  |  |  |  |  |  | 
3 | Compound 12: SEQ ID 12 polypeptide, Lys20 acylated with Moiety A (Y[Aib]EGTFTSDYSIILDKIAQK(Moiety A)AFVQWLIAGGPSSGAPPPS-NH2; reading uncertain) | 10.2* g | 26.0 g | 0 mM | −14.6*** mM | −14.8*** mM | −14.9*** mM | −4.8** mM | −3.0*** % | 2.5 mM | 3.9 mM | −0.4% | 6.8 mM |  |  |  |  |  |  |  |  | 
4 | CC[C@H](C)[C@H](NC(=O)[C@H](CCCCN)NC(=O)[C@H](CC(=O)O)NC(=O)[C@H](CC(C)C)NC(=O)[C@H](CC(C)C)NC(=O)[C@@H](NC(=O)[C@H](CO)NC(=O)[C@H](Cc1ccc(O)cc1)NC(=O)[C@H](CC(=O)O)NC(=O)[C@H](CO)NC(=O)[C@@H](NC(=O)[C@H](Cc1ccccc1)NC(=O)[C@@H](NC(=O)CNC(=O)[C@H](CCC(=O)O)NC(=O)C(C)(C)NC(=O)[C@@H](N)Cc1ccc(O)cc1)[C@@H](C)O)[C@@H](C)O)[C@@H](C)CC)C(=O)N[C@@H](C)C(=O)N[C@@H](CCC(N)=O)C(=O)N[C@@H](CCCCNC(=O)COCCOCCNC(=O)C(C)(C)NC(=O)CC[C@H](NC(=O)CCCCCCCCCCCCCCCCCCC(=O)O)C(=O)O)C(=O)N[C@@H](C)C(=O)N[C@@H](Cc1ccccc1)C(=O)N[C@H](C(=O)N[C@@H](CCC(N)=O)C(=O)N[C@@H](Cc1c[nH]c2ccccc12)C(=O)N[C@@H](CC(C)C)C(=O)N[C@H](C(=O)N[C@@H](C)C(=O)NCC(=O)NCC(=O)N1CCC[C@H]1C(=O)N[C@@H](CO)C(=O)N[C@@H](CO)C(=O)NCC(=O)N[C@@H](C)C(=O)N1CCC[C@H]1C(=O)N1CCC[C@H]1C(=O)N1CCC[C@H]1C(=O)N[C@@H](CO)C(N)=O)[C@@H](C)CC)C(C)C [Compound 3] (H-Y[Aib]EGTFTSDYSILLDKIAQK([AEEA-Aib-γGlu-C20 diacid])AFVQWLIAGGPSSGAPPPS-NH2) |  |  |  |  |  |  |  |  |  |  |  |  | 6.0*** g | 16.0*** g | 0 mM | −10.3*** mM | −13.9*** mM | −15.8*** mM | −10.9*** mM | −5.6*** % | Delta Blood Glucose (mM) Mean (Study 2, db/db mice, 48 hr): −6.6*** mM; Delta Blood Glucose (mM) Mean (Study 2, db/db mice, 72 hr): 0.1 mM; Body Wt. Change (%) 96 hr. vs. Baseline, Mean (Study 2, db/db mice, 96 hr): −4.9*** %; Delta Blood Glucose (mM) Mean (Study 2, db/db mice, 96 hr): -0.7 mM; blood glucose reduction: statistically significant blood glucose reduction upto 96 hr post treatment; body weight reduction: statistically significant reduction in food intake and body weight; reduction in food consumption: statistically significant reduction in food intake
5 | Compound 4: SEQ ID 07 polypeptide, Lys20 acylated with Moiety A (Y[Nva]EGTFTSDYSI[Nva]LDKIAQK(Moiety A)AFVQWLIAGGPSSGAPPPS-NH2; not fully specified; reading uncertain) |  |  |  |  |  |  |  |  |  |  |  |  | 4.6*** g | 14.4*** g | 0 mM | −10.4*** mM | −13.3*** mM | −13.8*** mM | −4.9* mM | −3.8*** % | Delta Blood Glucose (mM) Mean (Study 2, db/db mice, 48 hr): −3.7* mM; Delta Blood Glucose (mM) Mean (Study 2, db/db mice, 72 hr): 0.2 mM; Body Wt. Change (%) 96 hr. vs. Baseline, Mean (Study 2, db/db mice, 96 hr): −1.9** %; Delta Blood Glucose (mM) Mean (Study 2, db/db mice, 96 hr): -1.9 mM; blood glucose reduction: statistically significant blood glucose reduction upto 96 hr post treatment; body weight reduction: statistically significant reduction in food intake and body weight; reduction in food consumption: statistically significant reduction in food intake
